The kinase profiling compilation of Christmann-Franck et al. (2016)

Key:
Assay in all cases: radiometric filter-binding kinase assay, Kinase HotSpot
Settings in all cases: compound 0.5 µM; ATP 10 µM
SIK2 (human) = SIK2 (human) (UniProt Q9H0K1)
PRKD1 (human) = PRKD1 (human) (UniProt Q15139)
CSNK1G3 (human) = CSNK1G3 (human) (UniProt Q9Y6M4)
LIMK1 (human) = LIMK1 (human) (UniProt P53667)
MAP3K3 (human) = MAP3K3 (human) (UniProt Q99759)
CSNK1G2 (human) = CSNK1G2 (human) (UniProt P78368)
MAP4K2 (human) = MAP4K2 (human) (UniProt Q12851)
BRSK2 (human) = BRSK2 (human) (UniProt Q8IWQ3)
PLK3 (human) = PLK3 (human) (UniProt Q9H4B4)
AURKB (human) = AURKB (human) (UniProt Q96GD4)
STK16 (human) = STK16 (human) (UniProt O75716)
PIM3 (human) = PIM3 (human) (UniProt Q86V86)
RIPK2 (human) = RIPK2 (human) (UniProt O43353)
SGK2 (human) = SGK2 (human) (UniProt Q9HBY8)
HIPK4 (human) = HIPK4 (human) (UniProt Q8NE63)
CSNK2A1 (human) = CSNK2A1 (human) (UniProt P68400)
JAK3 JH1 JH2 (human) = JAK3 JH1 JH2 (human) (UniProt P52333)
AXL (human) = AXL (human) (UniProt P30530)
CDK1 CCNA2 (human) = CDK1 CCNA2 (human) (UniProt P06493+P20248)
RPS6KA2 KD1 KD2 (human) = RPS6KA2 KD1 KD2 (human) (UniProt Q15349)
FER (human) = FER (human) (UniProt P16591)
NEK4 (human) = NEK4 (human) (UniProt P51957)
GRK4 (human) = GRK4 (human) (UniProt P32298)
MAP3K8 (human) = MAP3K8 (human) (UniProt P41279)
FGR (human) = FGR (human) (UniProt P09769)
LRRK2 (human) = LRRK2 (human) (UniProt Q5S007)
DYRK4 (human) = DYRK4 (human) (UniProt Q9NR20)
DDR2 (human) = DDR2 (human) (UniProt Q16832)
TEK (human) = TEK (human) (UniProt Q02763)
NEK6 (human) = NEK6 (human) (UniProt Q9HC98)
BLK (human) = BLK (human) (UniProt P51451)
SRPK3 (human) = SRPK3 (human) (UniProt Q9UPE1)
ROCK2 (human) = ROCK2 (human) (UniProt O75116)
MAPK8 (human) = MAPK8 (human) (UniProt P45983)
[1] = target: TYK2 JH1 catalytic (human) (UniProt P29597)
CDK2 CCNE1 (human) = CDK2 CCNE1 (human) (UniProt P24941+P24864)
MST4 (human) = MST4 (human) (UniProt Q9P289)
CDK7 CCNH MNAT1 (human) = CDK7 CCNH MNAT1 (human) (UniProt P50613+P51948+P51946)
GRK5 (human) = GRK5 (human) (UniProt P34947)
DYRK2 (human) = DYRK2 (human) (UniProt Q92630)
INSR (human) = INSR (human) (UniProt P06213)
ULK2 (human) = ULK2 (human) (UniProt Q8IYT8)

Chain of INSR (human) (P06213 whole entry, looked up): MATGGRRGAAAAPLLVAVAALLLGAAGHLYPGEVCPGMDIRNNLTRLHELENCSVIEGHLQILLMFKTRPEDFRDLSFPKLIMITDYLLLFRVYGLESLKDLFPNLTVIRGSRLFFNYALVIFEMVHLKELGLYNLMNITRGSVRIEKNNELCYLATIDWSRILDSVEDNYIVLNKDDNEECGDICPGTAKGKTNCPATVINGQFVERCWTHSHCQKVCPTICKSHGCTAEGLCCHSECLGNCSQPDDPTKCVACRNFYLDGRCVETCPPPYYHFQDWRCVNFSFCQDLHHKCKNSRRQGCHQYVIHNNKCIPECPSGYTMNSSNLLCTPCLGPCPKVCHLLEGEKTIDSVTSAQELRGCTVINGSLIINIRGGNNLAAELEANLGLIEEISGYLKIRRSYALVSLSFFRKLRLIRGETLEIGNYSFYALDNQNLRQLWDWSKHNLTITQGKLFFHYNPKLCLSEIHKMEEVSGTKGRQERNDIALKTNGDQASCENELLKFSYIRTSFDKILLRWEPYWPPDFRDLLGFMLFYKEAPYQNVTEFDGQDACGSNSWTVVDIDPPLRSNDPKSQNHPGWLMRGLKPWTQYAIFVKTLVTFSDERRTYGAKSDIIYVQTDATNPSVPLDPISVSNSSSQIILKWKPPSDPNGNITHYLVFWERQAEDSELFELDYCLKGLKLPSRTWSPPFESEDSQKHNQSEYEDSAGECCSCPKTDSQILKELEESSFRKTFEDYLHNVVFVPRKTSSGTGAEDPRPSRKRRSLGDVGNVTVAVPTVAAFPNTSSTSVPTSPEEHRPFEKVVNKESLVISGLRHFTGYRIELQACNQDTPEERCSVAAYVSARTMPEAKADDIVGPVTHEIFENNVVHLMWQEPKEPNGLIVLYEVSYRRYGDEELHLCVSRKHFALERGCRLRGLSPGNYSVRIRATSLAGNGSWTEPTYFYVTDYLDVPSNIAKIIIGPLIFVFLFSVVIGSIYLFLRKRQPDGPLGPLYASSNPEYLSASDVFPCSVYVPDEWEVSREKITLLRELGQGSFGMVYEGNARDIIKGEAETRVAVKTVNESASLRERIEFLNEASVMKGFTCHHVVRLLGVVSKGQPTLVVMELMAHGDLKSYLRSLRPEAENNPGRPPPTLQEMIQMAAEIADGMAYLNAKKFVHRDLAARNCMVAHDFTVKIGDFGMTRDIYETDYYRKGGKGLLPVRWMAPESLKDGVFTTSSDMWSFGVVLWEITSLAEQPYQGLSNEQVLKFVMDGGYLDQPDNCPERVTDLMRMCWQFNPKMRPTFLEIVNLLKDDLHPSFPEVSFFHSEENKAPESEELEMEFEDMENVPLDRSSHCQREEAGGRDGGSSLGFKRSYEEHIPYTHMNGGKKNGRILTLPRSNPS
Chain of TEK (human) (Q02763 whole entry, looked up): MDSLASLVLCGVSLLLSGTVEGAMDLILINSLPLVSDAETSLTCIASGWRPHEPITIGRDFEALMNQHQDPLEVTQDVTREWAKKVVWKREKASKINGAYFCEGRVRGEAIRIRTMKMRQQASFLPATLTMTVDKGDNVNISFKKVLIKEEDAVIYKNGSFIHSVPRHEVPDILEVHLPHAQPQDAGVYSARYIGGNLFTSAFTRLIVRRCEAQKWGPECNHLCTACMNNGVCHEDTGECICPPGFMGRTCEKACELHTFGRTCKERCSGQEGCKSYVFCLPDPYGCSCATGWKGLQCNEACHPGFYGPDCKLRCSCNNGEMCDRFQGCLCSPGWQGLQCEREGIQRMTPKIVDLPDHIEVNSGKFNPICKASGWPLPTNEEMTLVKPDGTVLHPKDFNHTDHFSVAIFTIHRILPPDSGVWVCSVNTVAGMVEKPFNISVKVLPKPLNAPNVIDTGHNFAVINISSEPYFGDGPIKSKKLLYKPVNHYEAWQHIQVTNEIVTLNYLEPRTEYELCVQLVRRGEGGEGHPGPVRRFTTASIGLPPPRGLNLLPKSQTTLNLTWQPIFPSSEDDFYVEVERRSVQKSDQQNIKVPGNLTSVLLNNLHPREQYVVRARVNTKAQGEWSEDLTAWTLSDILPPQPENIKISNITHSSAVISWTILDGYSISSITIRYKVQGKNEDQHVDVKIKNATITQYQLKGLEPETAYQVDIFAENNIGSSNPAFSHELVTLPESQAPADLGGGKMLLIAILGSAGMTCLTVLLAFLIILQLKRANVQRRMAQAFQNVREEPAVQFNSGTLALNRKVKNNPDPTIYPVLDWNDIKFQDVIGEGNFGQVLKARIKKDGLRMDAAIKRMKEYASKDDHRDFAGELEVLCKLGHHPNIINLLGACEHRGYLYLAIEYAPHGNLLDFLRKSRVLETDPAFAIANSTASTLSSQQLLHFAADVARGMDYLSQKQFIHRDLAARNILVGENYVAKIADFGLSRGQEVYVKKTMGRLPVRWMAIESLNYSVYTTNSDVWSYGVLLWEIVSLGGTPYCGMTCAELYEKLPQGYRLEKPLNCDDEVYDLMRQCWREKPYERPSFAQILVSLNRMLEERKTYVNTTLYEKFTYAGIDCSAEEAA
Chain of MST4 (human) (Q9P289 whole entry, looked up): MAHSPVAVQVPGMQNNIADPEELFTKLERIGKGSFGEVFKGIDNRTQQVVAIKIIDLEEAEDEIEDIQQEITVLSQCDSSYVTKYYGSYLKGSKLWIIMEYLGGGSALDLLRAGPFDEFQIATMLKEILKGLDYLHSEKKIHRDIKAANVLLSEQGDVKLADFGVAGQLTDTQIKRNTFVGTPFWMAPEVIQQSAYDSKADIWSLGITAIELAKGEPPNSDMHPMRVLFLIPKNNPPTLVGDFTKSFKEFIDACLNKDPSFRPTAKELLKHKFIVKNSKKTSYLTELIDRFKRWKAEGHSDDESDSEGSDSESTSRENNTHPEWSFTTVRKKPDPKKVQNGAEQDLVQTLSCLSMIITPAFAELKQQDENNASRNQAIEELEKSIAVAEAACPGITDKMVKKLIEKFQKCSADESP
Chain of CDK1 CCNA2 (human) (P06493 whole entry, looked up): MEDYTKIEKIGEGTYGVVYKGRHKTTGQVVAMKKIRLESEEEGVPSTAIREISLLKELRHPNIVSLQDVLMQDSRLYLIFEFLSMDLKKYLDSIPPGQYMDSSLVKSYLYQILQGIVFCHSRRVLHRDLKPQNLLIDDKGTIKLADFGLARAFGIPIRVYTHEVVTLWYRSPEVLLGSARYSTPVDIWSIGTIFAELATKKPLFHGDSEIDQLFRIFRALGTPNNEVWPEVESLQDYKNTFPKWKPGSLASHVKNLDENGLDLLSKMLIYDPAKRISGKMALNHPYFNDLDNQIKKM
Chain of CDK1 CCNA2 (human) (P20248 whole entry, looked up): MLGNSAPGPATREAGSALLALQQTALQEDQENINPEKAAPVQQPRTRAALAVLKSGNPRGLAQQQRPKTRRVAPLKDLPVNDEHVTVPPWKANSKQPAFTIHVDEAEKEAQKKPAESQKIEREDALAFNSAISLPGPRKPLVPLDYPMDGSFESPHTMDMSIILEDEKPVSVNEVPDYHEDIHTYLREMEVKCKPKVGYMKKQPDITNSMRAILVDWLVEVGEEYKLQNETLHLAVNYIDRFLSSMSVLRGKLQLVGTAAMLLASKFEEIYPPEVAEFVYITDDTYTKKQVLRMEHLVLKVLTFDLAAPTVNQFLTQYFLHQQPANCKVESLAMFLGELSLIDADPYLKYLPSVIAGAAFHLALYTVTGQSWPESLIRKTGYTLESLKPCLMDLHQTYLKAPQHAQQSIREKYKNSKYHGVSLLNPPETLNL
Chain of RIPK2 (human) (O43353 whole entry, looked up): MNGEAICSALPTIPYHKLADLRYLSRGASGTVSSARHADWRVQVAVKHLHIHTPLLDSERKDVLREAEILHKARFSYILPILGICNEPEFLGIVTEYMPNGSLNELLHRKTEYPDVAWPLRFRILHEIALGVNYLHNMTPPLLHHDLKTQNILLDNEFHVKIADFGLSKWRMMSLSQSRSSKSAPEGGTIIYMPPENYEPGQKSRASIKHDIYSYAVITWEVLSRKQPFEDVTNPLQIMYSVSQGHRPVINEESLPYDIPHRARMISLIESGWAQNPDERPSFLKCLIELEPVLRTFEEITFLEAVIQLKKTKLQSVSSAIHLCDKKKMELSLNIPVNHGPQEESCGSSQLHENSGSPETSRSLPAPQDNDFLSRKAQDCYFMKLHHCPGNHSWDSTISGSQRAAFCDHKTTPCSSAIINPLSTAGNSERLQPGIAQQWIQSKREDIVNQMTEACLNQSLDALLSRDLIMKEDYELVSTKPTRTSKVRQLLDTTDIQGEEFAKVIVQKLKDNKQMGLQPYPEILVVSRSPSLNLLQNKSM
Chain of LIMK1 (human) (P53667 whole entry, looked up): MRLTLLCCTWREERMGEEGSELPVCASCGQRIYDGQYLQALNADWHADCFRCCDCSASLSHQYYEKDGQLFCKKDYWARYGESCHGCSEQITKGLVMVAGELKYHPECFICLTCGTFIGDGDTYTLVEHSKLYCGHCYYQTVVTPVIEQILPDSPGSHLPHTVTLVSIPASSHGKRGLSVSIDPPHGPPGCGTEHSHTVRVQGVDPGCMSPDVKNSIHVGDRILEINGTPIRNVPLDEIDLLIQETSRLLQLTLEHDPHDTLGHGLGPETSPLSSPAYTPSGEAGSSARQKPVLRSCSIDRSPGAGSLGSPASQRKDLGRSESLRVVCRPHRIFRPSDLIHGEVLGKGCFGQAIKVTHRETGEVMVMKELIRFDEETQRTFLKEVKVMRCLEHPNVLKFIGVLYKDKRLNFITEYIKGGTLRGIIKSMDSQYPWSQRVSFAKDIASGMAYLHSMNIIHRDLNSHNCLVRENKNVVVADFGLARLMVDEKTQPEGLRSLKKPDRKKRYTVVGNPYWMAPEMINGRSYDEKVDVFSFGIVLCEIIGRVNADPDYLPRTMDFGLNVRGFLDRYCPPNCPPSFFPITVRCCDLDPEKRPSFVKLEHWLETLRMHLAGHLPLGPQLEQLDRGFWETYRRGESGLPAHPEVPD

Question: `O=C(NC(NC(=S)Nc1ccc(F)c([N+](=O)[O-])c1)C(Cl)(Cl)Cl)C(c1ccccc1)c1ccccc1` (stereo not given) was tested. Which residual activity (SIK2 (human)) did it give?
Answer: 112%

Question: And the residual activity (PRKD1 (human))?
Answer: 96.9%

Question: What about the residual activity (CSNK1G3 (human)) of the same compound?
Answer: 87.7%

Question: And the residual activity (LIMK1 (human))?
Answer: 94.5%

Question: And the residual activity (MAP3K3 (human))?
Answer: 118%

Question: And the residual activity (CSNK1G2 (human))?
Answer: 98.3%

Question: And the residual activity (MAP4K2 (human))?
Answer: 111%

Question: What about the residual activity (BRSK2 (human)) of the same compound?
Answer: 102%

Question: And the residual activity (PLK3 (human))?
Answer: 94.4%

Question: What about the residual activity (AURKB (human)) of the same compound?
Answer: 95.3%

Question: What about the residual activity (STK16 (human)) of the same compound?
Answer: 99.4%

Question: What about the residual activity (PIM3 (human)) of the same compound?
Answer: 120%

Question: And the residual activity (RIPK2 (human))?
Answer: 97.4%

Question: And the residual activity (SGK2 (human))?
Answer: 119%

Question: What about the residual activity (HIPK4 (human)) of the same compound?
Answer: 104%

Question: What about the residual activity (CSNK2A1 (human)) of the same compound?
Answer: 95.4%

Question: And the residual activity (JAK3 JH1 JH2 (human))?
Answer: 110%

Question: And the residual activity (AXL (human))?
Answer: 112%

Question: And the residual activity (CDK1 CCNA2 (human))?
Answer: 101%

Question: What about the residual activity (RPS6KA2 KD1 KD2 (human)) of the same compound?
Answer: 101%

Question: What about the residual activity (FER (human)) of the same compound?
Answer: 104%

Question: And the residual activity (NEK4 (human))?
Answer: 87.8%

Question: What about the residual activity (GRK4 (human)) of the same compound?
Answer: 101%

Question: What about the residual activity (MAP3K8 (human)) of the same compound?
Answer: 105%

Question: What about the residual activity (FGR (human)) of the same compound?
Answer: 84.5%

Question: What about the residual activity (LRRK2 (human)) of the same compound?
Answer: 99.3%

Question: What about the residual activity (DYRK4 (human)) of the same compound?
Answer: 104%

Question: What about the residual activity (DDR2 (human)) of the same compound?
Answer: 96.4%

Question: What about the residual activity (TEK (human)) of the same compound?
Answer: 97.8%

Question: What about the residual activity (NEK6 (human)) of the same compound?
Answer: 109%

Question: And the residual activity (BLK (human))?
Answer: 110%

Question: What about the residual activity (SRPK3 (human)) of the same compound?
Answer: 98%

Question: And the residual activity (ROCK2 (human))?
Answer: 109%

Question: What about the residual activity (MAPK8 (human)) of the same compound?
Answer: 82.1%

Question: And the residual activity [1]?
Answer: 94%

Question: And the residual activity (CDK2 CCNE1 (human))?
Answer: 89.2%

Question: And the residual activity (MST4 (human))?
Answer: 89.3%

Question: What about the residual activity (CDK7 CCNH MNAT1 (human)) of the same compound?
Answer: 99%

Question: What about the residual activity (GRK5 (human)) of the same compound?
Answer: 105%

Question: What about the residual activity (DYRK2 (human)) of the same compound?
Answer: 102%

Question: What about the residual activity (INSR (human)) of the same compound?
Answer: 100%

Question: What does the source list for `CCN1/C(=C/C(C)=O)Sc2ccc(OC)cc21`?
Answer: residual activity (SIK2 (human)): 116%; residual activity (PRKD1 (human)): 78.1%; residual activity (LIMK1 (human)): 108%; residual activity (MAP3K3 (human)): 114%; residual activity (MAP4K2 (human)): 105%; residual activity (BRSK2 (human)): 89.5%; residual activity (PLK3 (human)): 99.4%; residual activity (AURKB (human)): 87.9%; residual activity (STK16 (human)): 87.4%; residual activity (PIM3 (human)): 47.4%; residual activity (RIPK2 (human)): 86.3%; residual activity (SGK2 (human)): 93.7%; residual activity (HIPK4 (human)): 94%; residual activity (CSNK2A1 (human)): 98.1%; residual activity (JAK3 JH1 JH2 (human)): 103%; residual activity (AXL (human)): 105%; residual activity (CDK1 CCNA2 (human)): 97.5%; residual activity (RPS6KA2 KD1 KD2 (human)): 83.3%; residual activity (FER (human)): 87.9%; residual activity (NEK4 (human)): 92.8%; residual activity (GRK4 (human)): 96.2%; residual activity (MAP3K8 (human)): 103%; residual activity (FGR (human)): 91.7%; residual activity (LRRK2 (human)): 98.1%; residual activity (DYRK4 (human)): 82.3%; residual activity (DDR2 (human)): 96.6%; residual activity (TEK (human)): 102%; residual activity (NEK6 (human)): 109%; residual activity (BLK (human)): 95.4%; residual activity (SRPK3 (human)): 95%; residual activity (ROCK2 (human)): 90.7%; residual activity (MAPK8 (human)): 102%; residual activity [1]: 113%; residual activity (CDK2 CCNE1 (human)): 87.7%; residual activity (MST4 (human)): 87.9%; residual activity (CDK7 CCNH MNAT1 (human)): 94.8%; residual activity (GRK5 (human)): 108%; residual activity (DYRK2 (human)): 19.5%; residual activity (INSR (human)): 101%

Question: `C#Cc1cccc(Nc2ncnc3cc(OCCOC)c(OCCOC)cc23)c1` was tested. Which residual activity (PRKD1 (human)) did it give?
Answer: 94.8%

Question: And the residual activity (CSNK1G3 (human))?
Answer: 106%

Question: And the residual activity (LIMK1 (human))?
Answer: 90.4%

Question: And the residual activity (CSNK1G2 (human))?
Answer: 98.3%

Question: What about the residual activity (MAP4K2 (human)) of the same compound?
Answer: 105%

Question: What about the residual activity (BRSK2 (human)) of the same compound?
Answer: 100%

Question: What about the residual activity (PLK3 (human)) of the same compound?
Answer: 102%

Question: And the residual activity (STK16 (human))?
Answer: 98%

Question: And the residual activity (PIM3 (human))?
Answer: 81.4%

Question: What about the residual activity (RIPK2 (human)) of the same compound?
Answer: 57.9%

Question: And the residual activity (SGK2 (human))?
Answer: 107%

Question: And the residual activity (CSNK2A1 (human))?
Answer: 78.9%

Question: And the residual activity (JAK3 JH1 JH2 (human))?
Answer: 91.3%

Question: And the residual activity (CDK1 CCNA2 (human))?
Answer: 99.6%

Question: What about the residual activity (RPS6KA2 KD1 KD2 (human)) of the same compound?
Answer: 101%

Question: And the residual activity (FER (human))?
Answer: 94%

Question: And the residual activity (GRK4 (human))?
Answer: 89.6%

Question: What about the residual activity (MAP3K8 (human)) of the same compound?
Answer: 91.8%

Question: What about the residual activity (DYRK4 (human)) of the same compound?
Answer: 101%

Question: And the residual activity (TEK (human))?
Answer: 94%

Question: What about the residual activity (NEK6 (human)) of the same compound?
Answer: 89.1%

Question: What about the residual activity (ULK2 (human)) of the same compound?
Answer: 98.7%

Question: What about the residual activity (BLK (human)) of the same compound?
Answer: 79.4%

Question: What about the residual activity (SRPK3 (human)) of the same compound?
Answer: 101%

Question: And the residual activity (ROCK2 (human))?
Answer: 91%

Question: What about the residual activity (CDK2 CCNE1 (human)) of the same compound?
Answer: 96.5%

Question: What about the residual activity (MST4 (human)) of the same compound?
Answer: 106%

Question: And the residual activity (CDK7 CCNH MNAT1 (human))?
Answer: 107%

Question: And the residual activity (GRK5 (human))?
Answer: 100%

Question: And the residual activity (INSR (human))?
Answer: 102%
